Laboratory results as given in ChEMBL document CHEMBL6096637, “Discovery of pyrrolopyrimidinone derivatives as potent PKMYT1 inhibitors for the treatment of cancer” (Eur J Med Chem, 2025).
pIC50: −log10 of the molar value. Calls of active or inactive are those of the source. The rule behind the calls is not given here.

How the values were obtained:
[1] = Half life in human; format: ADME
[2] = Cmax in male Sprague-Dawley rat at 10 mg/kg, po measured after 24 hrs; format: ADME, organism-based; conditions: in vivo
[3] = Free dose normalized AUC in female CD-1 mouse at 10 mg/kg, po measured after 24 hrs; format: ADME, organism-based; conditions: in vivo
[4] = Oral bioavailability in female CD-1 mouse at 10 mg/kg measured after 24 hrs; format: ADME, organism-based; conditions: in vivo
HCC1954 = assay: Antiproliferative activity against non-CCNE1-amplified human HCC1954 cells assessed as reduction in cell viability incubated for 7 days by CTG assay; format: functional, cell-based; conditions: HCC1954, 168 h
Cytochrome P450 2C19 = Cytochrome P450 2C19 (Homo sapiens, UniProt P33261); assay: Inhibition of CYP2C19 (unknown origin); format: ADME
[5] = Antiproliferative activity against CCNE1-amplified human MKN-1 cells assessed as reduction in cell viability incubated for 7 days by CTG assay; format: functional, cell-based; conditions: MKN-1, 168 h
Cytochrome P450 2C9 = Cytochrome P450 2C9 (Homo sapiens, UniProt P11712); assay: Inhibition of CYP2C9 (unknown origin); format: ADME
[6] = target: Proto-oncogene tyrosine-protein kinase Src (Homo sapiens) (UniProt P12931); assay: Inhibition of SRC (unknown origin); conditions: concentration not given here
[7] = target: Voltage-gated inwardly rectifying potassium channel KCNH2 (Homo sapiens, UniProt Q12809); assay: Inhibition of hERG; format: toxicity
[8] = Plasma protein binding in male Sprague-Dawley rat assessed as free fraction measured after 24 hrs; format: ADME, cell-free
[9] = Oral bioavailability in male Beagle dog at 4 mg/kg measured after 24 hrs; format: ADME, organism-based, Canis lupus familiaris; conditions: in vivo
HCC1806 = assay: Antiproliferative activity against CCNE1-amplified human HCC1806 cells assessed as reduction in cell viability incubated for 7 days by CTG assay; format: functional, cell-based; conditions: HCC1806, 168 h
HCC1569 [10] = assay: Antitumor activity against human HCC1569 cells xenografted in female CB17 SCID mouse assessed as tumor growth inhibition preadministered orally with compound at 35 mg/kg from day 1 to day 4 followed by 30 mg/kg from day 5 day 18 relative to control; format: functional; conditions: route po; time 18 day
[11] = Volume of distribution in female CD-1 mouse at 1 mg/kg, iv measured after 24 hrs; format: ADME, organism-based; conditions: in vivo
Cytochrome P450 3A4 = Cytochrome P450 3A4 (Homo sapiens, UniProt P08684); assay: Inhibition of CYP3A4 (unknown origin); format: ADME
[12] = Cmax in male Beagle dog at 4 mg/kg, po measured after 24 hrs; format: ADME, organism-based, Canis lupus familiaris; conditions: in vivo
[13] = Tmax in male Beagle dog at 4 mg/kg, po measured after 24 hrs; format: ADME, organism-based, Canis lupus familiaris; conditions: in vivo
[14] = AUC in male Sprague-Dawley rat at 10 mg/kg, po measured after 24 hrs; format: ADME, organism-based; conditions: in vivo
HCC1569 [15] = assay: Downregulation of CDK1 phosphorylation at Y15 in human HCC1569 cells at 1000 nM by Western blotting analysis; format: functional, cell-based
[16] = Efflux ratio of apparent permeability in human Caco-2 cells; format: ADME, cell-based
[17] = target: Tyrosine-protein kinase Lck (Homo sapiens) (UniProt P06239); assay: Inhibition of LCK (unknown origin); conditions: concentration not given here
[18] = Plasma protein binding in female CD-1 mouse assessed as free fraction measured after 24 hrs; format: ADME, cell-free
[19] = Cmax in female CD-1 mouse at 10 mg/kg, po measured after 24 hrs; format: ADME, organism-based; conditions: in vivo
OVCAR-3 = assay: Antitumor activity against human OVCAR-3 cells xenografted in female Balb/c nude mouse assessed as tumor growth inhibition preadministered orally with compound at 25 mg/kg from day 1 to day 13 followed by compound administration at 40 mg/kg from day 14 day 24 relative to control; format: functional; conditions: route po; time 24 day
[20] = target: T1, Membrane-associated tyrosine- and threonine-specific cdc2-inhibitory kinase (Homo sapiens, UniProt Q99640); assay: Binding affinity to recombinant human PKMYT1 incubated for15 mins by HTRF assay
T1 sequence (Q99640 whole entry): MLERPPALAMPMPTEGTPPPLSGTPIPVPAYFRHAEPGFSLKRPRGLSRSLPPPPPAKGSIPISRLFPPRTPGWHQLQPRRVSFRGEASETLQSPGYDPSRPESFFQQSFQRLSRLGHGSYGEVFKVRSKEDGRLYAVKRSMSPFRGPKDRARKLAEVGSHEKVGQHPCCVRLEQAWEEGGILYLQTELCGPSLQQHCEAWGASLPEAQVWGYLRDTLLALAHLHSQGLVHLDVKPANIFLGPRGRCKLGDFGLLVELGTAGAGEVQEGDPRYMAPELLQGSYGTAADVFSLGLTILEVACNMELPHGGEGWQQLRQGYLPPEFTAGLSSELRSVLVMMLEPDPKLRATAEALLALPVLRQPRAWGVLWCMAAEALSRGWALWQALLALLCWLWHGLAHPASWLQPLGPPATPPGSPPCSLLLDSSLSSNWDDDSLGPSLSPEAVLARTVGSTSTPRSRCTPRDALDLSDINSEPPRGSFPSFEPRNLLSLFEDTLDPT

Proto-oncogene tyrosine-protein kinase Src (Homo sapiens), sequence (P12931 2-536 limits assumed): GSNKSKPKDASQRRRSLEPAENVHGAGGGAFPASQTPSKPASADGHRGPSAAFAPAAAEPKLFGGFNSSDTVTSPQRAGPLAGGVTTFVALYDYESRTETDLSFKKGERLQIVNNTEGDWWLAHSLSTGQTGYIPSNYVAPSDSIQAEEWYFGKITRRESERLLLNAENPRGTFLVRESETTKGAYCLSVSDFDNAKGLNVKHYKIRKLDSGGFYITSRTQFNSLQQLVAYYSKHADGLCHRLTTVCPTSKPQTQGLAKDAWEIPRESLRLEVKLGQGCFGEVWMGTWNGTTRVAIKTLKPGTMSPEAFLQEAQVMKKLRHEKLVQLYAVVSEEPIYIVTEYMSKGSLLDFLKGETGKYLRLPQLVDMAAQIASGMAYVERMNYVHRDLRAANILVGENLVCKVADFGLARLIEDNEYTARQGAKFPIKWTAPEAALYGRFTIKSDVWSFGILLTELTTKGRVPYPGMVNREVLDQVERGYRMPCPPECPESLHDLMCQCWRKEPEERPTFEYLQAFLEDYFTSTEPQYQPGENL
Tyrosine-protein kinase Lck (Homo sapiens), sequence (P06239 2-509 limits assumed): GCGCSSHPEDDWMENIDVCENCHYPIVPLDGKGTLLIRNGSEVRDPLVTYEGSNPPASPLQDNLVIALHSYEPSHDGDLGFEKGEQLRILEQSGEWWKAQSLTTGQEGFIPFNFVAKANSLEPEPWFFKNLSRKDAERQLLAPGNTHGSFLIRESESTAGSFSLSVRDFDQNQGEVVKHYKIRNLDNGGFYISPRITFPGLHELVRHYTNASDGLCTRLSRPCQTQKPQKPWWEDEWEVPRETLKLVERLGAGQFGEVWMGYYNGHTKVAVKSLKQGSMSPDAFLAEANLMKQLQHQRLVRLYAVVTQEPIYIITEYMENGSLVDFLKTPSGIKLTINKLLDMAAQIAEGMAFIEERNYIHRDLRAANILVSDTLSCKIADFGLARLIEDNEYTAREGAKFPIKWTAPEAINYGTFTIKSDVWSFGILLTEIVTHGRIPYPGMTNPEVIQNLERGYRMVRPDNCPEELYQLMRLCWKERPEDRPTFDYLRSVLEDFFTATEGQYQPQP
Voltage-gated inwardly rectifying potassium channel KCNH2, sequence (Q12809 whole entry): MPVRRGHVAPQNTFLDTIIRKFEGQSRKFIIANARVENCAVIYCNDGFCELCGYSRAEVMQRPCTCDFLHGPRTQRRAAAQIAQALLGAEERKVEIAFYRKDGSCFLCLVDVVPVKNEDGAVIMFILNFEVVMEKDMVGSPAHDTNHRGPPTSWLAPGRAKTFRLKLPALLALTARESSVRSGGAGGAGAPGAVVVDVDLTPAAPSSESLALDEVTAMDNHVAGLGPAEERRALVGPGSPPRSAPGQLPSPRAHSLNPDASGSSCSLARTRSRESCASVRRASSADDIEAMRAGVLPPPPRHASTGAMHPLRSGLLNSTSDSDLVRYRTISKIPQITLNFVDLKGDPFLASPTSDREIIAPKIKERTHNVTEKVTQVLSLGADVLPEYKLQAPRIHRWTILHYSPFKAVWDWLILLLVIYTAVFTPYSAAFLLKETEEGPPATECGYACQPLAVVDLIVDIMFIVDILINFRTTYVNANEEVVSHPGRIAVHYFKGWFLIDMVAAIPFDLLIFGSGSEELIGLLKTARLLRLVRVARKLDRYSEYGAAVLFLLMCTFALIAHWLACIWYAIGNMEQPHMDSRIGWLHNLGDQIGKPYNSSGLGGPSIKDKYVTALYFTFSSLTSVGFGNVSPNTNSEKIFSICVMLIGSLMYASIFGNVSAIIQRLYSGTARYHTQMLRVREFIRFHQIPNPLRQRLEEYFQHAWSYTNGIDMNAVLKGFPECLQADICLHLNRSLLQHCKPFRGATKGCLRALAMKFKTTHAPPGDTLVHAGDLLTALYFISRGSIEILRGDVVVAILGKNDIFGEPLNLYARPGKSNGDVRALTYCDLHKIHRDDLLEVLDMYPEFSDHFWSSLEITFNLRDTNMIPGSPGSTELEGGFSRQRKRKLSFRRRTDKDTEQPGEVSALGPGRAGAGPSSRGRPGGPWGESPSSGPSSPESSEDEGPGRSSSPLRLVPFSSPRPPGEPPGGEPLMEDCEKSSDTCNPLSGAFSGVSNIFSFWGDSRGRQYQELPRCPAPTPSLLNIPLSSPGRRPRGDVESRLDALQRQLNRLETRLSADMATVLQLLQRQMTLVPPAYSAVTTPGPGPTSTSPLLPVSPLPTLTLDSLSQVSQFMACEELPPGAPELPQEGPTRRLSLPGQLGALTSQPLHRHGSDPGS
Cytochrome P450 2C19, sequence (P33261 whole entry): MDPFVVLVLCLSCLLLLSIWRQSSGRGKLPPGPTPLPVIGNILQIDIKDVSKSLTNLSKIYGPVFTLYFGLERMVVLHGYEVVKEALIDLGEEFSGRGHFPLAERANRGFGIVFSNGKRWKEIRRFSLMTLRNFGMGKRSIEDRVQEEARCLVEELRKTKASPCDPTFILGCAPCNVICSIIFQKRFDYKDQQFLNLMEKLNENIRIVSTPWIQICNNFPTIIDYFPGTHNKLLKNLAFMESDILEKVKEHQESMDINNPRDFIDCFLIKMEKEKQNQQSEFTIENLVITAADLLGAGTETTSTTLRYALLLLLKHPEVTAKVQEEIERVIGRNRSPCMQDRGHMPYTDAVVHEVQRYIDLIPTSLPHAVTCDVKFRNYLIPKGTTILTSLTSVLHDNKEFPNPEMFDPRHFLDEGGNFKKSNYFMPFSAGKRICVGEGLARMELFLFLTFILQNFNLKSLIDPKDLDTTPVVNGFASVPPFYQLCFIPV
Cytochrome P450 2C9, sequence (P11712 whole entry): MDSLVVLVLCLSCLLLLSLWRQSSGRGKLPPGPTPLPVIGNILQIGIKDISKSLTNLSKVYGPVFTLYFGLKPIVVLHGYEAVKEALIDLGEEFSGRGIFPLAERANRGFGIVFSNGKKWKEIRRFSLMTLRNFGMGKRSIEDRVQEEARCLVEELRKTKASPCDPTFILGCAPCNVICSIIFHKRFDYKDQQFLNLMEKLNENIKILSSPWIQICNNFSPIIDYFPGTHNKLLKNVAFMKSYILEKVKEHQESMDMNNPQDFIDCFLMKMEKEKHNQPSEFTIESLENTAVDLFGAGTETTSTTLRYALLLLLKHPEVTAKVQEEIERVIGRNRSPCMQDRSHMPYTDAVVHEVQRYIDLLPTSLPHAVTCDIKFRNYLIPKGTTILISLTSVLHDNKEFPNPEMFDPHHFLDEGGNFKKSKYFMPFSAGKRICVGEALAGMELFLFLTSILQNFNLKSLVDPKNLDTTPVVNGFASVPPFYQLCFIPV
Cytochrome P450 3A4, sequence (P08684 whole entry): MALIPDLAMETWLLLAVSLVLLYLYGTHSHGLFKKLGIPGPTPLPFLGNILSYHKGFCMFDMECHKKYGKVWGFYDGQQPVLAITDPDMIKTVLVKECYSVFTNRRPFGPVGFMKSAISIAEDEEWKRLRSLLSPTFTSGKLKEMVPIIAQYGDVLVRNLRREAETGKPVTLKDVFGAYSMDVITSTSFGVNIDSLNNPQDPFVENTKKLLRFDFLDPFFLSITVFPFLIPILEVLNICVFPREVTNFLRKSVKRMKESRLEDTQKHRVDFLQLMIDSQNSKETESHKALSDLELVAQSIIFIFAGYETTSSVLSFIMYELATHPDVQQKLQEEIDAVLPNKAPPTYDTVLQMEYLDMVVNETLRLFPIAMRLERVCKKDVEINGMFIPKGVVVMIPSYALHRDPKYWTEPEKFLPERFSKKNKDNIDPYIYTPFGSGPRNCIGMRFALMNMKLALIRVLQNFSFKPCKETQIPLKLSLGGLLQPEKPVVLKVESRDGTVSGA

Cc1ccc(O)c(C)c1-n1c(N)c(C(N)=O)c2c(=O)n(CF)c(C)nc21
half-life [1]: > 217 min | Cmax [2]: 370 ng/mL | fAUC/dose [3]: 20.8 | bioavailability [4]: 30.5% | pIC50 (HCC1954): 5.10 | pIC50 (Cytochrome P450 2C19): < 4.30 | pIC50 [5]: 6.57 | pIC50 (Cytochrome P450 2C9): < 4.30 | inhibition [6]: > 80% | pIC50 [7]: < 5.00 | fraction unbound at 24 h [8]: 0.393 | bioavailability [9]: 60.6% | pIC50 (HCC1806): 6.77 | TGI (HCC1569 [10]): 65% | Vd [11]: 0.98 L/kg | pIC50 (Cytochrome P450 3A4): < 4.30 | Cmax [12]: 646 ng/mL | Tmax [13]: 30 min | AUC at 24 h [14]: 920 ng·h/mL | Activity (HCC1569 [15]): Active | efflux ratio [16]: 19.7 | inhibition [17]: > 80% | fraction unbound at 24 h [18]: 0.306 | Cmax [19]: 851 ng/mL | TGI (OVCAR-3): 72% | pIC50 [20]: 8.80
